Test results from patent publication US20260217708A1, “FUSED BENZAZEPINE DERIVATIVES FOR USE IN THE TREATMENT OF CANCER AND EPILEPSY” (UCB BIOPHARMA SRL, priority 2023, published 2026).

What was measured:
[1] = target: T1, system Xc^− (Homo sapiens, UniProt Q9UPY5); experiment: Cystine-induced glutamate release assay; type: cell-based; design: endogenous in cells; host or cells: H4 cells; conditions: H4 cells, sodium-free HEPES buffer, 50 μM L-Cystine, 2 hours, Amplex Red glutamate readout; read-out: pIC50 Cystine-induced glutamate release assay (converted)
T1 sequence (Q9UPY5 1-501): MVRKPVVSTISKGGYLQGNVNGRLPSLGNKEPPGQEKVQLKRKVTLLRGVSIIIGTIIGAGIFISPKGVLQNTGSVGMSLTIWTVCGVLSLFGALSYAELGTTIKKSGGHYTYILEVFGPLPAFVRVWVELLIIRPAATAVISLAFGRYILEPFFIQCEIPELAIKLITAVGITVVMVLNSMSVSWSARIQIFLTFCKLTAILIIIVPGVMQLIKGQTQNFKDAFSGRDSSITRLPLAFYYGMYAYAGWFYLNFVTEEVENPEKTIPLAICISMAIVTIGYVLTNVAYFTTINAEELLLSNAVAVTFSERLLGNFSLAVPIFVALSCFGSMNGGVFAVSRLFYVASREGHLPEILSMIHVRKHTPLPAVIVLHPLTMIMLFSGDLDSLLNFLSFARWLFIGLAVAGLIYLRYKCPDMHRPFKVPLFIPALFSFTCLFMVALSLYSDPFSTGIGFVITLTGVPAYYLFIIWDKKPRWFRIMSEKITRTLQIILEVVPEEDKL
T1 sequence (P08195 1-529 partner): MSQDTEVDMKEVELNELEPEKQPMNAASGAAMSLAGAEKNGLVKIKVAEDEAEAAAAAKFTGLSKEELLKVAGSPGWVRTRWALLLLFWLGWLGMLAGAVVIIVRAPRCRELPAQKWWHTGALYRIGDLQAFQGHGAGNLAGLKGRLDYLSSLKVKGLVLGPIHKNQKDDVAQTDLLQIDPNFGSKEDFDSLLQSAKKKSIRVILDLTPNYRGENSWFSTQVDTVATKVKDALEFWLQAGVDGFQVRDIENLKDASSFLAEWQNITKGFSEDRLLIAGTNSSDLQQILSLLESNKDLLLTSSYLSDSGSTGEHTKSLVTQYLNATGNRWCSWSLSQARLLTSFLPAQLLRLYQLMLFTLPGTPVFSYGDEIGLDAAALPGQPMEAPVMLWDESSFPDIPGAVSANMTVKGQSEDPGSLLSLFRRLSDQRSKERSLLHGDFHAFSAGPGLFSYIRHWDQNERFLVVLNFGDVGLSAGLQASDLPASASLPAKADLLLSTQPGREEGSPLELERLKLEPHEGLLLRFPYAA
Source text: (§1) The effect of compounds of Formula (I) on the system Xc^− functionality was examined in two independent cell assays: (i) measurement of cystine-induced glutamate release; and (ii) measurement of [^14C]L-Cystine uptake.
(§2) As described above, System Xc^−, also known as the cystine/glutamate antiporter, is an amino acid transporter that mediates the extrusion of intracellular L-glutamate outside the cell and the uptake of extracellular L-cystine into the cell.
(§3) By measuring respectively, the concentration of glutamate released outside the cell and the L-cystine uptaken in the cell, with increasing concentrations of compounds of formula (I) according to the present invention, the efficacy of said compounds to inhibit the System Xc^− function can be evaluated.
(§4) The efficacy of the compounds to inhibit system Xc^− is represented by measuring the IC50 which corresponds to the concentration of compound necessary to inhibit 50% of the signals from the two control groups; DMSO 1% and Erastin 50 μM in the respective assays. pIC50 values correspond to −log of the IC50 in Molar.
Measurement of cystine-induced glutamate release indicates levels of glutamate (outside of the cell) that are dependent on system Xc^− antiporter function. Upon the addition of L-Cystine to H4 cells, intracellular glutamate is counter-transported and exported in the supernatant.
In this assay, the medium is devoid of sodium to prevent the transport of glutamate by sodium-dependent excitatory amino acid transporters (EAATs). H4 cells were plated on 384-well culture plate at 1×10^4 cells/well in Dulbecco's Modified Eagle Medium (DMEM) with L-glutamine, penicillin/streptomycin and 10% fetal bovine serum (all from ThermoFisher Scientific) and incubated in a humidified CO2 incubator at 37° C. After 2 days, cells were washed 4 times with prewarmed sodium-free HEPES buffer (contents in mM: HEPES 10, KCl 5.4, CaCl2 2.5, MgCl2 1, KH2PO4 0.4, D-Glucose 5, Choline chloride 140), pH 7.4. Glutamate release was induced by addition of 50 μM of L-Cystine (Sigma-Aldrich), together with a test compound of Formula (I) at 1% final DMSO concentration. After 2 hours of incubation in the culture incubator, supernatants were transferred to a low-binding polypropylene 384-well plate to determine L-glutamate concentration using Amplex™ Red Glutamic Acid Assay Kit (ThermoFisher Scientific). Briefly, 10 μL of Amplex™ Red working solution was added to 10 μL of the supernatant, then the mixture was incubated for 30 min at 37° C. Fluorescence intensity was measured by EnVision microplate reader (PerkinElmer).

[2] = target: T1, system Xc^−; experiment: [^14C]L-Cystine uptake assay; type: cell-based; design: endogenous in cells; host or cells: H4 cells; conditions: H4 cells, sodium-free HEPES buffer, 0.5 μM L-[14C]Cystine and 4.5 μM L-Cystine, 1 hour at 37° C.; read-out: pIC50 [^14C] L-Cystine uptake assay (converted)
Source text: as §1, §2, §3, §4
In this assay, the medium is devoid of sodium to prevent the transport of glutamate by sodium-dependent excitatory amino acid transporters (EAATs). H4 cells were plated on a 96-well CytoStar-T scintillating microplate (PerkinElmer) at 5×10^4 cells/well in the medium described above. After 1 day, cells were washed one time with the sodium-free HEPES buffer and preincubated with test compounds of Formula (I) (1% final DMSO) for 15 min. Uptake was initiated by adding 0.5 μM L-[1,2, 1′,2′-^14C]Cystine (0.02 mCi/mL, PerkinElmer, Waltham, US) and 4.5 μM L-Cystine (Sigma-Aldrich). After 1 hour at 37° C., plates were counted in a MicroBeta^2 microplate counter (PerkinElmer).

IC50 [1] [nM] | IC50 [2] [nM] | Structure (SMILES)
< 15.8 | < 15.8 | Cc1cc2c(c(Cl)n1)-c1cccnc1[C@@H](C)C(=O)N2CC(=O)Nc1ccc(C(F)(F)F)cc1 (single isomer, unassigned) [#197, Enantiomer (10R) or (10S) of 2-[3-chloro-5,10-dimethyl-9-oxo-4,8,12-triazatricyclo[9.4.0.0^2,7]pentadeca-1(11),2,4,6,12,14-hexaen-8-yl]-N-[4-(trifluoromethyl)phenyl]acetamide]
39.8 to 100 | 39.8 to 100 | Cc1cc2c(c(F)n1)-c1ccnn1[C@@H](C)C(=O)N2CC(=O)Nc1ccc(C(F)(F)F)cc1 (single isomer, unassigned) [#198, Enantiomer (7R) or (7S) of 2-[14-fluoro-7,12-dimethyl-8-oxo-5,6,9,13-tetrazatricyclo[8.4.0.0^2,6]tetradeca-1(10),2,4,11,13-pentaen-9-yl]-N-[4-(trifluoromethyl)phenyl]acetamide]
15.8 to 39.8 | < 15.8 | CO[C@H]1C(=O)N(CC(=O)Nc2ccc(C(F)(F)F)cc2)c2cc(C)nc(Cl)c2-c2ccccc21 (single isomer, unassigned) [#199, Entnaiomer (7R) or (7S) of 2-[1-chloro-7-methoxy-3-methyl-6-oxo-7H-pyrido[4,3-d][3]benzazepin-5-yl]-N-[4-(trifluoromethyl)phenyl]acetamide]
15.8 to 39.8 | < 15.8 | Cc1cc2c(c(F)n1)-c1cccnc1[C@@H](C)C(=O)N2CC(=O)Nc1ccc(Cl)c(F)c1 (single isomer, unassigned) [#200, Enantiomer (10R) or (10S) of N-(4-chloro-3-fluoro-phenyl)-2-[3-fluoro-5,10-dimethyl-9-oxo-4,8,12-triazatricyclo[9.4.0.0^2,7]pentadeca-1(11),2(7),3,5,12,14-hexaen-8-yl]acetamide]
15.8 to 39.8 | < 15.8 | Cc1cc2c(cn1)-c1cccnc1[C@@H](C)C(=O)N2CC(=O)Nc1ccc(C(F)(F)F)cc1 (single isomer, unassigned) [#201, Enantiomer (10R) or (10S) of 2-[5,10-dimethyl-9-oxo-4,8,12-triazatricyclo[9.4.0.0^2,7]pentadeca-1(11),2(7),3,5,12,14-hexaen-8-yl]-N-[4-(trifluoromethyl)phenyl]acetamide]
39.8 to 100 | 15.8 to 39.8 | Cc1cc2c(c(F)n1)-c1cncnc1[C@@H](C)C(=O)N2CC(=O)Nc1ccc(C(F)(F)F)cc1 (single isomer, unassigned) [#202, Enantiomer (8R) or (8S) of 2-[15-fluoro-8,13-dimethyl-9-oxo-4,6,10,14-tetrazatricyclo[9.4.0.0^2,7]pentadeca-1(15),2(7),3,5,11,13-hexaen-10-yl]-N-[4-(trifluoromethyl)phenyl]acetamide]
15.8 to 39.8 | < 15.8 | [2H]C([2H])([2H])[C@H]1C(=O)N(CC(=O)Nc2ccc(C(F)(F)F)cc2)c2cc(C)nc(F)c2-c2cccnc21 (single isomer, unassigned) [#203, Enantiomer (10R) or (10S) of 2-[3-fluoro-5-methyl-9-oxo-10-(trideuteriomethyl)-4,8,12-triazatricyclo[9.4.0.0^2,7]pentadeca-1(15),2(7),3,5,11,13-hexaen-8-yl]-N-[4-(trifluoromethyl)phenyl]acetamide]
39.8 to 100 | < 15.8 | Cc1cc2c(c(F)n1)-c1ccc(C)nc1[C@@H](C)C(=O)N2CC(=O)Nc1ccc(C(F)(F)F)cc1 (single isomer, unassigned) [#204, Enantiomer (10R) or (10S) of 2-[3-fluoro-5,10,13-trimethyl-9-oxo-4,8,12-triazatricyclo[9.4.0.0^2,7]pentadeca-1(11),2(7),3,5,12,14-hexaen-8-yl]-N-[4-(trifluoromethyl)phenyl]acetamide]
